Earlier results in patent US10314914B2, “Iodophor composition and methods of use” (Veloce BioPharma, LLC, priority 2015, dated 2019).

Settings: 50% solution of DMSO in water

rate of penetration: markedly enhanced
Compound: C[C@]12CCC(=O)C=C1CC[C@@H]1[C@@H]2[C@@H](O)C[C@@]2(C)[C@H]1CC[C@]2(O)C(=O)CO [hydrocortisone]
